The numbers were not newly measured in US6086864A, “Pharmaceutical formulations comprising polythiourea and methods of use thereof” (Merrell Pharmaceuticals Inc., priority 1997, dated 2000), which cites them from elsewhere.

The subject of data set [1] is viral protein responsible for cell recognition. The conditions noted are these: purified form of heparin.
The conditions of data set [2]: in vivo.

Take heparin: the “inhibition of host cell infection” value in data set [1] is on record as “limited inhibition of host cell infection”. The side effects result in data set [2] is “hemorrhage and increased clot formation time as well as thrombocytopenia”.
